Measured values reported in patent US6756381B2 (SuperGen, Inc., priority 2002, dated 2004).

What was measured:
[1] = Moisture sorption/desorption (VTI SGA-100 moisture balance); type: physicochemical; settings: for hygroscopicity (in words): 5 to 95% RH; for Weight % chg: 25 deg C
Source text: The samples were not dried prior to analysis.

[2] = Storage of Form B in a closed vial, XRPD pattern compared; type: physicochemical; settings: 31 days, ambient conditions
Procedure: X-ray powder diffraction analyses were carried out on a Shimadzu XRD-6000 X-ray powder diffractometer using Cu Kα radiation having a wavelength of 1.5406 Å. The instrument is equipped with a fine-focus X-ray tube. The tube power was set by setting potential difference at 40 kV, and current 40 mA. The divergence and scattering slits were set at 1° and the receiving slit was set at 0.15 mm. Diffracted radiation was detected by a NaI scintillation detector. A theta-two theta continuous scan at 3°/min (0.4 sec/0.02° step) from 2.5 to 40 °2 θ was performed. A silicon standard was analyzed each day to check the instrument alignment. Each sample was analyzed in a quartz sample holder. A variable temperature (VT-XRPD) experiment was performed on one form. The sample was prepared for analysis by pressing it into a variable temperature holder. A powder pattern was collected initially at 35° C. and again, after heating, at 200° C.

[3] = Dehydration/desolvation under vacuum, XRPD compared; type: physicochemical
Procedure: Dehydration/desolvation studies were conducted by placing a sample under continuous vacuum at room temperature for 14 days. An XRPD pattern was obtained on the remaining solid and compared to the starting material.

human tumor xenografts = settings: nude mice; cited from earlier work
[4] = cited from earlier work
[5] = start, elapsed time 0.0 min, sample not dried

CC[C@@]1(O)C(=O)OCc2c1cc1n(c2=O)Cc2cc3c([N+](=O)[O-])cccc3nc2-1 [Form A, 9-nitrocamptothecin]
hygroscopicity (in words) [1]: not hygroscopic | Weight % chg ([1]; sorption, about 35% RH): 0.0210% | Weight % chg [1, 5]: 0.0000%

CC[C@@]1(O)C(=O)OCc2c1cc1n(c2=O)Cc2cc3c([N+](=O)[O-])cccc3nc2-1 [Form B, 9-nitrocamptothecin]
stability of the crystalline polymorph on storage (XRPD pattern unchanged) [2]: relatively stable | hygroscopicity (in words) [1]: relatively hygroscopic | Weight % chg [1, 5]: 0.0000%

CC[C@@]1(O)C(=O)OCc2c1cc1n(c2=O)Cc2cc3c([N+](=O)[O-])cccc3nc2-1 [Form C, 9-nitrocamptothecin]
result of attempt to desolvate under vacuum [3]: becomes amorphous

CC[C@@]1(O)C(=O)OCc2c1cc1n(c2=O)Cc2cc3c([N+](=O)[O-])cccc3nc2-1 [9-nitrocamptothecin, 9-nitro-20(S)-camptothecin]
regression of human tumors established as xenografts (human tumor xenografts): induced regression

CC[C@@](O)(C(=O)[O-])c1cc2n(c(=O)c1CO)Cc1cc3ccccc3nc1-2.[Na+] [Sodium camptothecin]
unpredictable side effects ([4]; administered intravenously): myelosuppression and hemorrhagic cystitis | activity in clinical trials ([4]; solubilized by sodium hydroxide in water, intravenous): antineoplastic activity
